Measurements from patent US20250231157A1, “METHOD FOR DETERMINING THE PARTITION OF NAPHTHENIC ACIDS FROM A PRODUCTION WATER MIMICKING SYSTEM AND MIMICKING SYSTEM” (PETRÓLEO BRASILEIRO S.A. – PETROBRAS, priority 2023, published 2025).
Several values for one entry are separate records, joined by “and”; a condition that tells them apart may be missing. Identical values can stand only once.

Assays:
Type in all cases: physicochemical
[1] = Control experiments: availability of the species in alkaline aqueous medium without using the reactor; details: acid solubilized directly in aqueous phase, no reactor
Protocol: Previously, the back titration procedure was internalized and optimized (Example 1), ensuring that the reproducibility of the measurements was adequate (standard deviation values below 10%, for example) and that the recoveries were close to what was expected based on the purity of the reagents (i.e., close to or above 90%). […] Control experiments were performed (measuring the availability of the species in an aqueous medium, without using the reactor) by solubilizing the organic acid directly in the aqueous phase and titrating a 10.0 mL aliquot; the same way, experiments were performed in the reactor based on the standardization of heptol and salinity already discussed (3.5%).

[2] = Partition equilibrium in the presence of surfactants (TBA, CTA, TMA)
Description: The presence of chemical compounds usually added in the chain of unit operations of oil extraction and production, such as demulsifiers and surfactants, can affect the partition equilibrium of species in this water/oil system. In order to understand the extent of this effect, as well as discern the relevance of the chemical structure on this effect, the following items were chosen: • Dissolvan 961 (Clariant), composed of oil hydrocarbons (CAS 918-811-1) and ethanol (CAS 64-17-5); • Dissolvan 974 (Clariant), composed of EO-PO block polymer poly adducts and Bisphenol-A-diglycidyl ether (CAS 68123-18-2) and ethanol (CAS 64-17-5); • Tetrabutylammonium chloride (CAS 1112-67-0), 97% purity; • Cetyltrimethylammonium chloride (CAS 112-02-7), 25% in water; and • Trimethylammonium chloride (CAS 593-81-7), 98% purity.
For this study, the experiments (in triplicate) used between 100.0 and 1000.0 mg·L^−1 of each compound, comparing the results with control tests (absence of the component), all with constant salinity at 3.5% (m·v^−1). Finally, neutralization titration with a standardized NaOH titrant solution was used to determine the effect on the partition equilibrium for four acidic species (the same as in the other examples, except for dicyclohexylacetic acid).
Considering the study with surfactants, the (individual) addition of three species to the control system was evaluated (tetrabutylammonium chloride (TBA), tetramethylammonium chloride (TMA) and cetyltrimethylammonium chloride (CTA)). For this purpose, the surfactants have distinct chemical structures, namely the size of the side chain, and their eventual effect on the partition equilibrium of the acidic species was evaluated.

[3] = Partition equilibrium (migration to aqueous phase) heptol/water under pressure and temperature, central composite design, potentiometric titration; details: for Migration, Predicted: model value
Protocol: Three multivariate experimental designs (central composite designs) were performed in which the variables pressure (up to 1 MPa) and temperature (between 25° C. and 80° C.) were considered independent variables, with the migration of three acidic species as the response factor: benzoic, pentanoic and cyclohexanepentanoic acid. For this purpose, 5 levels were defined and gave rise to 10 experiments for each acidic species (Table 4), added to two control experiments (with higher pressure and temperature, as well as in the absence of pressure and at room temperature).
The experiments were performed with constant salinity of 3.5% (m·v^−1), constant heptol fraction (70:30, for heptane and toluene), and acidic species concentration of 0.03 M for benzoic and pentanoic acid, and 0.01 M for cyclohexanepentanoic acid. The results were evaluated with 95% confidence, using a response surface to estimate the maximum observable effect in each case, provided that the mathematical correlation was equal to or greater than R^2: 0.75.

[4] = Partition equilibrium with addition of calcium and strontium salts to the aqueous phase; details: for Migration: salinity 3.5%
Protocol: The addition of salts to the reaction system is of fundamental importance when one intends to mimic field conditions. In this sense, in addition to continuing the study of the salinity effect (Example 4), the insertion of salts containing Ca^2+ and Sr^2+ ions, known to be present in seawater, was tested. To this end, the projects were based on the literature (Zheng, J. et al. Offshore produced water management: A review of current practice and challenges in harsh/Arctic environments. Mar. Pol. Bul. 2016, 104, 7-19) and four concentrations of each of the two ions were evaluated (400.0, 1200.0, 2600.0 and 9000.0 mg·L^−1), maintaining salinity at 3.5% (m·v^−1).
In short, the experimental results were generated in triplicate, using 99% NaCl to add salinity to the aqueous fraction and PA calcium chloride and PA strontium chloride to add calcium and strontium, respectively.
The addition of calcium and strontium to the reaction system, in the form of salts, aims at mimicking the real scenario in which both species are present (regardless of the salinity of the medium), especially in the well condition. This study aimed at understanding the effect (on the migration of acids to the organic phase) of this ion in the system also at concentrations higher than 10 mM. Finally, the experiments (in triplicate) with divalent strontium ions followed the same rationale.

## O=C(O)CCCCC1CCCCC1 [Cyclohexanepentanoic Acid, cyclohexanepentanoic acid]
[1]; Na2CO3 + NaHCO3 (3.48×10^−5 mol)
  Availability (reference value): 100 % mol
[1]; NaHCO3 (3.45×10^−5 mol)
  Availability (reference value): 100 % mol
[2]; Absence of surfactant, salinity 3.5%
  Migration: 4.9 %, mol
[2]; CTA100 (cetyltrimethylammonium chloride 100 mg · L^−1)
  Migration: 2.1 %, mol
[2]; CTA1000 (1000 mg · L^−1)
  Migration: 38.9 %, mol
[2]; TBA100 (tetrabutylammonium chloride 100 mg · L^−1)
  Migration: 18.5 %, mol
[2]; TBA1000 (1000 mg · L^−1)
  Migration: 18.4 %, mol
[2]; TMA100 (trimethylammonium chloride 100 mg · L^−1)
  Migration: 0.0 %, mol
[2]; TMA1000 (1000 mg · L^−1)
  Migration: 0.0 %, mol
[2]; surfactant CTA, 1000 mg·L^−1
  Increase in migration to the aqueous phase with CTA: above 700%
[2]; surfactant TBA, noticeable from 100 mg·L^−1
  Increase in the tendency to migrate to the aqueous phase with TBA: 370%
[2]; surfactant TMA
  Effect of TMA on partition equilibrium: migration tending to zero
[3]; 20 °C, 0.1 MPa (experiment 12, control)
  Migration, Measured: 4.0 %, mol
[3]; 25 °C, 0.5 MPa (experiment 5)
  Migration, Increment (related to control): −39.73 %, mol
  Migration, Measured: 2.4 %, mol
  Migration, Predicted: 4.0 %, mol
[3]; 38 °C, 0.25 MPa (experiment 1)
  Migration, Increment (related to control): −42.22 %, mol
  Migration, Predicted: 1.7 %, mol
[3]; 38 °C, 0.25 MPa (experiment 1), heptol 70:30, 3.5% salinity
  Migration, Measured: 2.3 %, mol
[3]; 38 °C, 0.75 MPa (experiment 3)
  Migration, Increment (related to control): 104.3 %, mol
  Migration, Measured: 8.2 %, mol
  Migration, Predicted: 5.1 %, mol
[3]; 52 °C, 0.1 MPa (experiment 7)
  Migration, Increment (related to control): −29.8 %, mol
  Migration, Measured: 2.8 %, mol
  Migration, Predicted: 1.9 %, mol
[3]; 52 °C, 0.5 MPa (experiments 9 and 10, centre point)
  Migration, Measured: 2.6 %, mol and 3.1 %, mol
[3]; 52 °C, 1 MPa (experiment 8)
  Migration, Increment (related to control): 76.99 %, mol
  Migration, Measured: 7.1 %, mol
  Migration, Predicted: 8.6 %, mol
[3]; 66 °C, 0.25 MPa (experiment 2)
  Migration, Increment (related to control): −37.25 %, mol
  Migration, Measured: 2.5 %, mol
  Migration, Predicted: 4.4 %, mol
[3]; 66 °C, 0.75 MPa (experiment 4)
  Migration, Increment (related to control): 106.79 %, mol
  Migration, Measured: 8.3 %, mol
  Migration, Predicted: 7.7 %, mol
[3]; 80 °C, 0.5 MPa (experiment 6)
  Migration, Increment (related to control): 157.42 %, mol
  Migration, Measured: 10.3 %, mol
  Migration, Predicted: 9.3 %, mol
[3]; 80 °C, 1 MPa (experiment 11)
  Migration, Increment (related to control): −34.77 %, mol
  Migration, Predicted: 8.6 %, mol
[3]; 80 °C, 1 MPa (experiment 11, control)
  Migration, Measured: 2.6 %, mol
[3]; 52 °C, 0.5 MPa (experiments 9 and 10)
  Migration, Predicted: 3.5 %, mol
[4]; Absence of ions
  Migration: 4.9 %, mol
[4]; Calcium 400 mg · L^−1
  Migration: 5.5 %, mol
[4]; Calcium 1200 mg · L^−1
  Migration: 4.7 %, mol
[4]; Calcium 2600 mg · L^−1
  Migration: 4.8 %, mol
[4]; Strontium 400 mg · L^−1
  Migration: 4.4 %, mol
[4]; Strontium 1200 mg · L^−1
  Migration: 5.3 %, mol
[4]; Strontium 2600 mg · L^−1
  Migration: 4.8 %, mol
[4]; calcium up to the maximum study concentrations
  Effect of calcium ion on migration to the aqueous phase: no variation in migration
[4]; strontium 400-2600 mg·L^−1
  Effect of strontium ions on migration to the aqueous phase: no effect
